6 molecules from patent publication US6277847A, “Herbicidal isoindolinonyl-and 3,4-dihydroisoquinolonyl-substituted heterocycles” (FMC Corporation, priority 2000, dated 2001) can be followed below.

Format in all cases: in vivo
Test [1] relates to wheat (Triticum aestivum var. Lew). Kind of test: post-emergence herbicidal activity, wheat. Conditions: 1 Kg/Ha, about fourteen days, read-out: post-emergence herbicidal activity (% control) WHT. The procedure, abridged:
(§1)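 Seedlings were grown in soil flats to a suitable stage, then sprayed with test compound in water/acetone at 1 Kg/Ha. Treated plants were kept alongside untreated controls for about fourteen days and then scored for phytotoxicity as percent control, 0 being no effect and 100 complete control.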

Test [2] concerns velvetleaf (Abutilon theophrasti). Kind of test: post-emergence herbicidal activity, velvetleaf. As to conditions: 1 Kg/Ha, about fourteen days, read-out: post-emergence herbicidal activity (% control) ABUTH. The procedure, abridged: as §1
The subject of test [3] is morningglory (Ipomea lacunosa or Ipomea hederacea). As to the kind of experiment: post-emergence herbicidal activity, morningglory. As to conditions: Ipomoea, 1 Kg/Ha, about fourteen days, read-out: post-emergence herbicidal activity (% control) IPOSS. The procedure, abridged: as §1
For test [4], the system named is soybean (Glycine max -- var. Winchester). As to the kind of experiment: post-emergence herbicidal activity, soybean. As to conditions: 1 Kg/Ha, about fourteen days, read-out: post-emergence herbicidal activity (% control) SOY. The procedure, abridged:
as §1

Test [5] relates to velvetleaf (Abutilon theophrasti). As to the kind of experiment: pre-emergence herbicidal activity, velvetleaf. As to conditions: 1 kg/Ha, about fourteen days, read-out: pre-emergence herbicidal activity (% control) ABUTH. The procedure, abridged:
(§2)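 Seeds sown in flats of soil mix were sprayed pre-emergence with test compound in water/acetone at 1 kg/Ha. Flats were held about fourteen days beside untreated controls, then phytotoxicity was scored as percent control (0 = no effect, 100 = complete control).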

Test [6] has as its system soybean (Glycine max -- var. Winchester). Kind of test: pre-emergence herbicidal activity, soybean. Conditions: 1 kg/Ha, about fourteen days, read-out: pre-emergence herbicidal activity (% control) SOY. The procedure, abridged:
as §2

The subject of test [7] is wheat (Triticum aestivum var. Lew). As to the kind of experiment: pre-emergence herbicidal activity, wheat. As to conditions: 1 kg/Ha, about fourteen days, read-out: pre-emergence herbicidal activity (% control) WHT. The procedure, abridged: as §2
The subject of test [8] is morningglory (Ipomea lacunosa or Ipomea hederacea). As to the kind of experiment: pre-emergence herbicidal activity, morningglory. Conditions: Ipomoea, 1 kg/Ha, about fourteen days, read-out: pre-emergence herbicidal activity (% control) IPOSS. Put shortly: as §2
Test [9] has as its system green foxtail (Setaria viridis). As to the kind of experiment: post-emergence herbicidal activity, green foxtail. As to conditions: 1 Kg/Ha, about fourteen days, read-out: post-emergence herbicidal activity (% control) SETVI. Put shortly:
as §1

The subject of test [10] is common cocklebur (Xanthium strumarium L.). As to the kind of experiment: post-emergence herbicidal activity, cocklebur. Conditions: 1 Kg/Ha, about fourteen days, read-out: post-emergence herbicidal activity (% control) XANPE. The procedure, abridged: as §1
Test [11] has as its system field corn (Zea mays var. Pioneer 3732). As to the kind of experiment: post-emergence herbicidal activity, corn. Conditions: 1 Kg/Ha, about fourteen days, read-out: post-emergence herbicidal activity (% control) CRN. Put shortly: as §1
Test [12] relates to common cocklebur (Xanthium strumarium L.). Kind of test: pre-emergence herbicidal activity, cocklebur. As to conditions: 1 kg/Ha, about fourteen days, read-out: pre-emergence herbicidal activity (% control) XANPE. Put shortly:
as §2

In test [13] the test system is field corn (Zea mays var. Pioneer 3732). Kind of test: pre-emergence herbicidal activity, corn. Conditions: 1 kg/Ha, about fourteen days, read-out: pre-emergence herbicidal activity (% control) CRN. The procedure, abridged:
as §2

For test [14], the system named is Johnsongrass (Sorghum halepense). Kind of test: pre-emergence herbicidal activity, johnsongrass. As to conditions: 1 kg/Ha, about fourteen days, read-out: pre-emergence herbicidal activity (% control) SORHA. The protocol: (§3) This example sets forth the methods of herbicidal testing conducted on the specific compounds set forth below. Specifically, the compounds referenced below were tested for pre- and post-emergence herbicidal activity using a variety of crops and weeds. The test plants include, but are not limited to, soybean (Glycine max -- var. Winchester), field corn (Zea mays var. Pioneer 3732), wheat (Triticum aestivum var. Lew), morningglory (Ipomea lacunosa or Ipomea hederacea), velvetleaf (Abutilon theophrasti), green foxtail (Setaria viridis), Johnsongrass (Sorghum halepense), blackgrass (Aloepecurus myosuroides), common chickweed (Stellaria media), and common cocklebur (Xanthium strumarium L.).
(§4) In the post-emergence test, seeds of the plant species named above were planted in flats containing the appropriate soil mixture where they were maintained to allow the seeds to germinate. When the plants in these flats reached the proper stage of growth, flats for the pre-emergence tests were planted in a like manner. The flats containing the post-emergence and pre-emergence test plant species were then sprayed with an appropriately concentrated water/acetone solution of test compound. Once treated the flats were maintained, along with untreated controls, for about fourteen days. All treated plants were then examined for phytotoxicity, which was expressed as percent control where 0 is no effect and 100 is complete control. Effective rates of application for the compounds of the present invention range from 0.001 to 3 kg/ha, more likely from […] to 1 Kg/ha.
(§5) Herbicidal activity data at selected application rates are in Tables 4 and 5. The test compounds are identified by numbers correspond to those in Table 1.
Rate of application of test compound is 1 kg/Ha
(§6) SOY is soybean, WHT is wheat, CRN is corn, ABUTH is velvetleaf, IPOSS is
morningglory, STEME is chickweed, XANPE is cocklebur, ALOMY is blackgrass, […]

Test [15] shares this test system. As to the kind of experiment: post-emergence herbicidal activity, johnsongrass. As to conditions: 1 Kg/Ha, about fourteen days, read-out: post-emergence herbicidal activity (% control) SORHA. Put shortly:
as §1

Test [16] deals with common chickweed (Stellaria media). As to the kind of experiment: pre-emergence herbicidal activity, chickweed. As to conditions: 1 kg/Ha, about fourteen days, read-out: pre-emergence herbicidal activity (% control) STEME. Put shortly: as §2
Test [17] concerns blackgrass (Aloepecurus myosuroides). As to the kind of experiment: pre-emergence herbicidal activity, blackgrass. As to conditions: Alopecurus myosuroides, 1 kg/Ha, about fourteen days, read-out: pre-emergence herbicidal activity (% control) ALOMY. Put shortly:
as §2

In test [18] the test system is green foxtail (Setaria viridis). Kind of test: pre-emergence herbicidal activity, green foxtail. As to conditions: 1 kg/Ha, about fourteen days, read-out: pre-emergence herbicidal activity (% control) SETVI. The procedure, abridged: as §2
Test [19] relates to common chickweed (Stellaria media). Kind of test: post-emergence herbicidal activity, chickweed. Conditions: 1 Kg/Ha, about fourteen days, read-out: post-emergence herbicidal activity (% control) STEME. The protocol: as §3, §4, §5, §6
(§7) morningglory, STEME is chickweed, XANPE is cocklebur, ALOMY is blackgrass,
(§8) Rate of application of test compound is 1 Kg/Ha. The definitions as shown under Table 4 apply to Table 5.

In test [20] the test system is blackgrass (Aloepecurus myosuroides). As to the kind of experiment: post-emergence herbicidal activity, blackgrass. Conditions: Alopecurus myosuroides, 1 Kg/Ha, about fourteen days, read-out: post-emergence herbicidal activity (% control) ALOMY. The protocol:
as §3, §4, §5, §6, §7, §8

Consider `Cn1c(C(F)(F)F)cc(=O)n(-c2c(Cl)cc(Cl)c3c2CN(O)C3=O)c1=O` [Compound 16], for which the activity at 1000 g/ha in test [1] turned out to be 20%; in test [2], 50%; in test [3], 20%; in [4], 60%; in [5], 100%; in test [6], 50%. Moreover, the activity at 1000 g/ha in test [7] was 70%; in test [8], 65%; in test [9], 30%; in [10], 30%; in [11] it was 40%; in [12] it was 80%. Also, the activity at 1000 g/ha in [13] is 90%; in test [14], 100%; in test [15], 30%; in [16], 5%; in test [17], 60%; in test [18], 100%.
Regarding `CCON1Cc2c(-n3c(=O)cc(C(F)(F)F)n(C)c3=O)ccc(Cl)c2C1=O` [Compound 19], the activity at 1000 g/ha in test [1], in test [2], in test [3], in [4], in test [5] and in [6] was 100% in each case. Moreover, the activity at 1000 g/ha in [7], in test [8], in test [9], in test [10], in test [11] and in test [12] was 100% each time. In addition, the activity at 1000 g/ha in [13], in test [14], in test [19], in [15], in test [16] and in test [18] was 100% throughout.
Turning to `C=CCN1Cc2c(-n3c(=O)cc(C(F)(F)F)n(C)c3=O)ccc(Cl)c2C1=O` [Compound 20], the activity at 1000 g/ha in test [1], in test [2], in [3], in test [4], in [5] and in test [6] was 100% throughout. Moreover, the activity at 1000 g/ha in test [7], in test [8], in test [9], in test [10], in [11] and in [12] was 100% throughout. In addition, the activity at 1000 g/ha in [13], in test [14], in test [19], in test [15], in test [16] and in test [18] was 100% each time.
Take `CON1Cc2c(-n3c(=O)cc(C(F)(F)F)n(C)c3=O)ccc(Cl)c2C1=O` [Compound 21]: the activity at 1000 g/ha in test [1] was determined as 80%; in test [2], 100%; in test [3], 100%; in [4], 100%; in [5], 100%; in [6], 100%. Also, the activity at 1000 g/ha was found to be 100% in [7]; 100% in test [8]; 100% in [9]; 95% in [10]; 80% in test [11]; 100% in [12]. In addition, the activity at 1000 g/ha in test [13], in test [14], in test [19], in test [15], in test [16] and in test [18] was 100% each time.
In the case of `CCN1Cc2c(-n3c(=O)cc(C(F)(F)F)n(C)c3=O)ccc(Cl)c2C1=O` [Compound 22], the activity at 1000 g/ha in test [1], in test [2], in test [3], in test [4], in test [5] and in test [6] was 100% throughout. In addition, the activity at 1000 g/ha in test [7], in test [8], in test [9], in test [10], in [11] and in [12] was 100% in each case. Moreover, the activity at 1000 g/ha in [13], in test [14], in test [19], in test [15], in test [16] and in test [18] was 100% each time.
In the case of `CCn1c(C(F)(F)F)cc(=O)n(-c2ccc(Cl)c3c2CN(C(C)C)C3=O)c1=O` [Compound 71], the activity at 1000 g/ha in test [1] worked out at 80%; in [2], 95%; in [3] it was 95%; in test [4] it was 90%; in test [5], 100%; in [6], 100%. Moreover, the activity at 1000 g/ha came to 100% in test [7]; 100% in [20]; 100% in test [8]; 100% in test [9]; 70% in test [10]; 90% in [11]. For the same molecule, the activity at 1000 g/ha in test [12] stood at 100%; in test [13] it was 100%; in [19] it was 100%; in test [16], 100%; in [17], 90%; in [18], 100%.
